Test results published in patent US6867305B2, “Synthesis of epothilones, intermediates thereto and analogues thereof” (Sloan-Kettering Institute for Cancer Research, priority 1996, dated 2005).

How the values were obtained:
[1] = tested on: A549 lung carcinoma xenograft; experiment: Human tumor xenograft in nude mice; type: in vivo
Protocol: (§1) Depending on the tumor type, treatment started on day 10 to day 21 when subcutaneous tumor size reached 35-200 mm^3, except otherwise indicated. Tumor size and body-weight were recorded every other day (Q2D) and, for humane reasons, the animals were sacrificed when tumor size reached ≧10% of body-weight. Each group, including untreated control, consisted of 3-5 animals unless otherwise indicated.
(§2) Athymic nude mice bearing the nu/nu gene were used for all human tumor xenografts. Outbred, Swiss-background mice were obtained from Charles River Laboratories. Male mice 8 weeks or older weighing 22 g and up were used for most experiments. The drug was administered via the tail vein for 6 hr.-i.v. infusion. Each individual mouse was confined in a perforated Falcon polypropylene tube restrainer for drug administration. Tumor volume was assessed by measuring length×width×height (or width) using a caliper. The programmable Harvard PHD2000 syringe pump (Harvard Apparatus) with multi-track was used for i.v. infusion. […] All animal studies were conducted in accordance with the guidelines of the National Institutes of Health “Guide for the Care and Use of Animals” and the protocol approved by the Memorial Sloan-Kettering Cancer Center's Institutional Animal Care and Use Committee. In keeping with the policy of this committee for the humane treatment of tumor-bearing animals, mice were euthanized when tumors reached ≧10% of their total body weight.
(§3) Human tumor cells (5×10^6) or tumor tissue (30-50 mg) were implanted s.c. flank in nu/nu mice (Charles River Laboratories, Wilmington, Mass.). When tumor grew to a specified size, treatment was started by every-other day×5 with 6 hr i.v.-infusion, unless otherwise indicated. Tumor volume was measured with calipers in three dimensions (length×width×height or width). Body-weight changes and lethality were monitored every other day.

[2] = tested on: CCRF-CEM/Taxol leukemia xenograft; experiment: Human tumor xenograft in nude mice; type: in vivo; conditions: for Lowest Average Tumor Size (T/C) / Tumor Disappearance: CCRF/Taxol, dEpoB 30 mg/kg, Taxol 20 mg/kg, Q2Dx5, 6-hr i.v. infusion
Protocol: as §1, §2, §3

[3] = tested on: CCRF-CEM/VBL leukemia xenograft; experiment: Human tumor xenograft in nude mice; type: in vivo; conditions: for Lowest Average Tumor Size (T/C) / Tumor Disappearance: CCRF/VBL, dEpoB 30 mg/kg, Taxol 20 mg/kg, Q2Dx5, 6-hr i.v. infusion
Protocol: as §1, §2, §3

[4] = tested on: HL-60 promyelocytic leukemia xenograft; experiment: Human tumor xenograft in nude mice; type: in vivo
Protocol: as §1, §2, §3

[5] = tested on: HT-29 colon adenocarcinoma xenograft; experiment: Human tumor xenograft in nude mice; type: in vivo
Protocol: as §1, §2, §3

[6] = tested on: PC-3 prostate adenocarcinoma xenograft; experiment: Human tumor xenograft in nude mice; type: in vivo
Protocol: as §1, §2, §3

[7] = tested on: UL3-C ovary adenocarcinoma xenograft; experiment: Human tumor xenograft in nude mice; type: in vivo
Protocol: as §1, §2, §3

CCRF-CEM/VBL = experiment: Relative potency in vitro, very highly resistant MDR cells; type: cell-based, human; conditions: for IC50: Homo sapiens, CCRF-CEM, read-out: CCRF-CEM/VBL IC50 in μM; for Fold of Resistance (B)/(A): [IC50 CCRF-CEM/VBL]/[IC50 CCRF-CEM]
Protocol: The cells were cultured at an initial density of 2-5×10^4 cells per ml. They were maintained in a 5% CO2-humidified atmosphere at 37° C. in RPMI mediun 1640 (GIBCO/BRL) containing penicillin (100 units/ml), streptomycin (100 μg/ml) (GIBCO/BRL), and 5% heat-inactivated fetal bovine serum. For solid tumor cells growing in a monolayer (such as MCF-7/Adr), cytotoxicitiy of the drug was determined in 96-well microtiter plates by using the sulforhodamine B method as described by Skehan et al (23) for measuring the cellular protein content. For cells that were grown in suspension (such as CCRF-CEM and its sublines), cytotoxicitiy was measured by using the 2,-3-bis(2-methoxy-4-nitro-5-sulfophenyl)-5carboxanilide)-2H terazodium hydroxide (XTT)-microculture tetrazonium method (24) in duplicate in 96-well microtiter plates. For both methods, the absorbance of each well was measured with a microplate reader (EL-340, Bio-Tek, Burlington, Vt.). Each run entailed six or seven concentrations of the tested drugs. Dose-effect relationship data were analyzed with the median-effect plot (25) by using a previously described computer program (26).

[8] = Stability in plasma in vitro (HPLC); type: in vitro ADME, mouse
Protocol: (FIG. 44). […] (FIG. 44).
Human blood plasma or nude mice plasma (300 μl) containing dEpoB (0.05-20 μg/ml) was added 30 μl of methanol and mixed for 2 min and then added 300 μl of methanol. The centrifuge supernatant was used for high performance liquid chromatography (HPLC). Nova-pak C18 column (15 cm) was used, with 50% acetonitrile/water with 0.8% triethylamine and 0.2% phosphoric acid as mobile phase. UV absorbance at 250 nm was measured.
Stability of dEpoF in animal plasmas. A HPLC method is set up using a NovaPak C 18, 3.9×300 mm column with a mobile phase of 50% acetonitrile in 50 mM potassium dihydrogen phosphate with 0.01% triethylamine at a flow rate of 0.8 ml/min. dEpoF is monitored at a wavelength of 260 nm and has a retention time of about 10 min. The plasma stability is performed with mouse plasma and dog plasma purchased from Pel-Freeze and human plasma from the blood center in MSKCC. A small amount of dEpoF was dissolved in 50% methanol/water at a concentration of 500 μg/mL. An aliquot of 20 μL is then spiked to 2 mL of plasma to a final plasma concentration of 5 μg/mL. The plasma samples were kept at 37 degree. […] Twenty μL of the supernatant was analyzed by HPLC without further modification. dEpoF disappears rapidly with half life about one hour in the commercial frozen mouse plasma alone, but stable in dog and human plasma.

[9] = A549, dEpoB 40 mg/kg, Taxol 15 mg/kg, Q2Dx3, 6-hr i.v. infusion
[10] = HL-60, dEpoB 30 mg/kg, Taxol 20 mg/kg, Q2Dx5, 6-hr i.v. infusion
[11] = HT-29, dEpoB 30 mg/kg, Taxol 15 mg/kg, Q2Dx6, 6-hr i.v. infusion
[12] = PC-3, dEpoB 40 mg/kg, Taxol 15 mg/kg, Q2Dx3, 6-hr i.v. infusion
[13] = dEpoB 30 mg/kg, Taxol 20 mg/kg, Q2Dx5, 6-hr i.v. infusion

CC(=O)O[C@H]1C(=O)[C@@]2(C)[C@H]([C@H](OC(=O)c3ccccc3)[C@]3(O)C[C@H](OC(=O)[C@H](O)[C@@H](NC(=O)c4ccccc4)c4ccccc4)C(C)=C1C3(C)C)[C@]1(OC(C)=O)CO[C@@H]1C[C@@H]2O [Taxol, paclitaxel, reference compound]
Tumor Disappearance [1, 9]: 2/4
Lowest Average Tumor Size (T/C) [2]: 0.32
Tumor Disappearance [2]: 0/2
Lowest Average Tumor Size (T/C) [3]: 0.62
Tumor Disappearance [3]: 0/2
Tumor Disappearance [4, 10]: 4/4
Tumor Disappearance [5, 11]: 0/4
Tumor Disappearance [6, 12]: 0/4
Tumor Disappearance [7, 13]: 0/3
IC50 (UL-3-B/Taxol; UL-3-B/Taxol): 13.4 nM

C/C(=C\c1csc(C)n1)C1C[C@@H]2O[C@]2(C)CCC[C@H](C)[C@H](O)[C@@H](C)C(=O)C(C)(C)C(O)CC(=O)N1 (some centres unmarked) [aza-EpoB, aza-epothilone B]
cross-resistance (fold of resistance vs parent cell line) (UL-3-B/Taxol): 0.015[12.5] x

C/C1=C/C[C@@H](/C(C)=C/c2csc(CO)n2)OC(=O)C[C@H](O)C(C)(C)C(=O)[C@H](C)[C@@H](O)[C@@H](C)CCC1 [dEpoF, 12,13-Desoxyepothilone F]
IC50 (CCRF-CEM/VBL): 0.287 µM
potency relative to dEpoB (times less potent) (CCRF-CEM/VBL; MDR CCRF-CEM/VBL cells): 4.5 ×
Fold of Resistance (B)/(A) (CCRF-CEM/VBL): 33.6 x
half life in mouse plasma ([8]; commercial frozen mouse plasma, 5 μg/mL, 37 degree): about one

C/C1=C/C[C@@H](/C(C)=C/c2csc(C)n2)OC(=O)C[C@H](O)C(C)(C)C(=O)[C@H](C)[C@@H](O)[C@@H](C)CCC1 [dEpoB, 12,13-desoxyepothilone B]
IC50 (CCRF-CEM/VBL): 0.637 µM
Fold of Resistance (B)/(A) (CCRF-CEM/VBL): 8.6 x
Therapeutic Effect Rank Order ([1]; A549, i.v. infusion): Taxol, dEpoB, VBL>VP-16
Lowest Average Tumor Size (T/C) [1, 9]: 0.01
Tumor Disappearance [1, 9]: 1/3
Therapeutic Effect Rank Order ([2]; CCRF-CEM/Taxol, i.v. infusion): dEpoB>>>Taxol
Lowest Average Tumor Size (T/C) [2]: 0
Tumor Disappearance [2]: 3/3
Therapeutic Effect Rank Order ([3]; CCRF-CEM/VBL, i.v. infusion): dEpoB>>>Taxol
Lowest Average Tumor Size (T/C) [3]: 0
Tumor Disappearance [3]: 2/2
Therapeutic Effect Rank Order ([4]; HL-60, i.v. infusion): Taxol≧ dEpoB
Lowest Average Tumor Size (T/C) [4, 10]: 0.01
Tumor Disappearance [4, 10]: 2/3
Therapeutic Effect Rank Order ([5]; HT-29, i.v. infusion): Taxol>dEpoB
Lowest Average Tumor Size (T/C) [5, 11]: 0.02
Tumor Disappearance [5, 11]: 0/3
Therapeutic Effect Rank Order ([6]; PC-3, i.v. infusion): Taxol, VBL>dEpoB>>VP-16
Therapeutic Effect Rank Order ([6]; PC-3, i.v. or i/p.): Taxol>dEpoB>>Adriamycin
Therapeutic Effects dEpoB vs Taxol ([6]; PC-3, dEpoB 40 mg/kg, Taxol 15 mg/kg, Q2Dx3): <<
Lowest Average Tumor Size (T/C) [6, 12]: 0.12
Tumor Disappearance [6, 12]: 0/3
Lowest Average Tumor Size (T/C) [7, 13]: 0.03
Tumor Disappearance [7, 13]: 0/3
Therapeutic Effect Rank Order ([7]; i.v. infusion): dEpoB≧ Taxol
half-life ([8]; nude, mouse, plasma, nude mice plasma, HPLC, read-out: t1/2 in nude mice plasma in vitro): ~20 min
